Assay results: US20050143357A1 (priority 2002, published 2005)

Experiments:
[1] = system: upstream regulatory portion of the VDUP-1; experiment: VDUP-1 regulatory region luciferase reporter assay in transiently transfected LNCaP cells; format: cell-based, human; conditions: VDUP-1 regulatory portion fused to luceferase gene, different time points, luminometer
Description: A human cell line, LNCaP was transiently transfected with a DNA vector composed of the upstream regulatory portion of the VDUP-1 fused to the gene encoding luceferase. The procedures to carry out transfection were essentially as described in example 2. At different time points a steroid with androgen properties, exemplified as R1881, were added to cell cultures, as was calcitriol (vitamin D). At different time points, luciferace activity in cell extracts was measured using a luminometer. The outcome of this experiment was that the level of luceferase was decreased by the steroid and was increased by vitamin D.

[2] = system: 5 α-reduotase; conditions: once it enters prostate cells, by 5 α-reduotase; cited from earlier work

SMILES | level of luceferase (luciferace activity in cell extracts) [1] | fraction converted to dihydrotestosterone (DHT) [2]
C[C@]1(O)CC[C@H]2[C@@H]3CCC4=CC(=O)CCC4=C3C=C[C@@]21C [R1881] | decreased | –
C[C@]12CC[C@H]3[C@@H](CCC4=CC(=O)CC[C@@]43C)[C@@H]1CC[C@@H]2O [Testosterone] | – | about 90%
C=C1/C(=C\C=C2/CCC[C@]3(C)[C@@H]([C@H](C)CCCC(C)(C)O)CC[C@@H]23)C[C@@H](O)C[C@@H]1O [calcitriol] | increased | –
